Data on seven compounds can be found in patent publication US20170362292A1, “S-Alkylated Hepcidin Peptides and Methods of Making and Using Thereof” (priority 2014, published 2017).

Where two headings read alike, the source gives them in different places.

A short description of series [1]: serum iron in C57BL/6 mice after intraperitoneal peptide injection. Format: in vivo. The following applies: 50-100 nmoles/mouse, vs PBS-injected mice. As for the experimental part:
Based on in vitro results, PR73SH was selected as a suitable candidate for animal studies, which were carried out as previously described. See Preza, et al. (2011) J. Clin. Invest. 121:4880; Ramos, et al. (2012) Blood 120:3829; and Nemeth, et al. (2006) Blood 107:328. Animal studies were approved by the Animal Research Committee at UCLA. Briefly, C57BL/6 mice were obtained from The Jackson Laboratory (Bar Harbor, Me.) and were maintained on NIH 31 rodent diet (iron content 336 mg/kg; Harlan Teklad, Indianapolis, […]). Mice were injected intraperitoneally either with 100 μL PBS (control) or with 50 or 100 nmoles peptide in 100 μL PBS. Mice were killed 6, 24, and 48 hours later, blood was collected by cardiac puncture, and serum was separated using Microtainer tubes (Becton Dickinson, Franklin Lakes, N.J.). Serum iron was determined by using a colorimetric assay (Diagnostic Chemicals, Oxford, Conn.), which was modified for the microplate format so that 50 μL serum was used per measurement. See Nemeth, et al. (2004) J. Clin. Invest. 113(9): 1271-1276. The results were expressed as the percentage of decrease in serum iron when compared with the average value of serum iron levels in PBS-injected mice.
In vivo activity of PR73SH and PR73 was compared by assaying serum iron levels at 3 time points: (6, 24, and 48 hours) and concentrations that were previously shown to be sufficient for PR73 to exert potent bioactivity (50-100 nmoles/mouse).

Series [2] concerns the target T1, human ferroportin-GFP (Homo sapiens, UniProt Q9NP59).
T1 sequence (Q9NP59 1-571): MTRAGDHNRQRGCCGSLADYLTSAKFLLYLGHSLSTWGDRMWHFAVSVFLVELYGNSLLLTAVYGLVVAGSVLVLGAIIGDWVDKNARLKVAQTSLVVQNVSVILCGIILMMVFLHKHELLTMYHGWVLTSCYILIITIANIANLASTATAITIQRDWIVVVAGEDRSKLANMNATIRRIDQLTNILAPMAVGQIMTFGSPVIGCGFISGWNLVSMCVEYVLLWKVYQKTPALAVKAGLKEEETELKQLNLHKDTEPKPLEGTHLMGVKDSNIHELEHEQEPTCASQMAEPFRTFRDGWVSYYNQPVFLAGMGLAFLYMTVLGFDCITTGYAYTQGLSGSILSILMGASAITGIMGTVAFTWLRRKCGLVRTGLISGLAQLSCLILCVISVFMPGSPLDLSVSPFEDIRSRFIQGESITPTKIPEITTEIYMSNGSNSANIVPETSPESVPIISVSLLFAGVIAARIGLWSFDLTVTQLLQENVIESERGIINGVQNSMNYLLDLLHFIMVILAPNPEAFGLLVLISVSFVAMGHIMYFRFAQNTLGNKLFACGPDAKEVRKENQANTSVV
Put plainly: cellular assay based on Fpn degradation (HEK293:TREX-Fpn-GFP cells, flow cytometry). Format: cell-based. On the procedure: The S-alkylated hepcidin peptides were tested in vitro using a previously described cellular assay based on Fpn degradation. See e.g., Nemeth, et al. (2006) Blood 107: 328. Briefly, HEK293:TREX-Fpn-GFP, a cell line stably transfected with the human ferroportin-GFP construct under the control of doxycycline-inducible promoter, was plated on poly-D-lysine-coated plates in the presence of 20 μM FAC. Fpn expression was induced with 500 ng/mL doxycycline treatment for 24 hours. Then, doxycycline was washed off, and cells were treated with peptides for 24 hours. Cells were then trypsinized and resuspended at 1×10^6 cells/mL, and the intensity of green fluorescence was analyzed by flow cytometry using FAC Scan (fluorescence activated cell scanner) Analytic Flow Cytometer (Becton Dickinson, San Jose, Calif.) with CellQuest version 3.3 software. Cells not induced with doxycycline to express Fpn-GFP were used to establish a gate to exclude background fluorescence. Cells induced with doxycycline, but not treated with any peptides, were used as the positive control. Each peptide treatment was repeated independently 3 to 6 times. […] Hydrophobicity may also play a role, as activity increases in the carboxy-esters-substituent(s) order: —CH3<—C2H5<—C4H9 (PR73 SC<PR73 SB<PR73 SA).
In vitro activity may be measured by the dose-dependent loss of fluorescence of cells engineered to display ferroportin fused to green fluorescent protein as in Nemeth et al. (2006) Blood 107:328-33.
In general terms: In flow cytometry, cells or beads pass a laser one at a time.

The nature of series [3]: storage stability in DMSO (LC/MS/MS). It counts as physicochemical. The note with it: 10 mM solution, room temperature, 30 days. The text has this:
Thus, the present invention also provides storage stable compositions comprising one or more S-alkylated hepcidin peptides.

The mark [4] stands for this setting: peptide treatment 24 hours, loss of GFP fluorescence relative to Hep25, read-out: EC50 [nM] TREX-hFpn-GFP cells.

As a reminder, the EC50 is the concentration that produces a half-maximal response. As to `CCCCCCCCCCCCCCCCNC(=O)CN(CC(N)=O)C(=O)CCCCCNC(=O)C[C@H](Cc1ccccc1)NC(=O)[C@H](CCCNC(=N)N)NC(=O)[C@H](CS)NC(=O)[C@H](CCCNC(=N)N)NC(=O)C[C@@H]1CCCN1C(=O)[C@@H](NC(=O)[C@H](Cc1c[nH]cn1)NC(=O)[C@@H](NC(=O)CNCC(=O)O)[C@@H](C)O)C(c1ccccc1)c1ccccc1` [PR73, reference compound], the serum iron result in series [1] (6 hour time point) and in series [1] (24 hour time point) was “decreased serum iron” each time. Moreover, in series [2] (setting [4]), the half-maximal effective concentration (EC50) amounted to 4.2 ± 0.3 nM.

In the case of `CCCCCCCCCCCCCCCCNC(=O)CN(CC(N)=O)C(=O)CCCCCNC(=O)C[C@H](Cc1ccccc1)NC(=O)[C@H](CCCNC(=N)N)NC(=O)[C@H](CSC(=CC(=O)OCC)C(=O)OCC)NC(=O)[C@H](CCCNC(=N)N)NC(=O)C[C@@H]1CCCN1C(=O)[C@@H](NC(=O)[C@H](Cc1c[nH]cn1)NC(=O)[C@@H](NC(=O)CNCC(=O)O)[C@@H](C)O)C(c1ccccc1)c1ccccc1` [PR73SB], the DC50 in series [2] (setting [4]) was 10.4 ± 1.2 nM.

For `CCCCCCCCCCCCCCCCNC(=O)CN(CC(N)=O)C(=O)CCCCCNC(=O)C[C@H](Cc1ccccc1)NC(=O)[C@H](CCCNC(=N)N)NC(=O)[C@H](CSC(=CC(=O)OC)C(=O)OC)NC(=O)[C@H](CCCNC(=N)N)NC(=O)C[C@@H]1CCCN1C(=O)[C@@H](NC(=O)[C@H](Cc1c[nH]cn1)NC(=O)[C@@H](NC(=O)CNCC(=O)O)[C@@H](C)O)C(c1ccccc1)c1ccccc1` [PR73SC], the DC50 in series [2] (setting [4]) was found to be 12.6 ± 1.8 nM.

Turning to `CCCCCCCCCCCCCCCCNC(=O)CN(CC(N)=O)C(=O)CCCCCNC(=O)C[C@H](Cc1ccccc1)NC(=O)[C@H](CCCNC(=N)N)NC(=O)[C@H](CSC=CC(=O)O)NC(=O)[C@H](CCCNC(=N)N)NC(=O)C[C@@H]1CCCN1C(=O)[C@@H](NC(=O)[C@H](Cc1c[nH]cn1)NC(=O)[C@@H](NC(=O)CNCC(=O)O)[C@@H](C)O)C(c1ccccc1)c1ccccc1` [PR73SD], the DC50 in series [2] (setting [4]) stood at 218 ± 13.4 nM.

Regarding `CCCCCCCCCCCCCCCCNC(=O)CN(CC(N)=O)C(=O)CCCCCNC(=O)C[C@H](Cc1ccccc1)NC(=O)[C@H](CCCNC(=N)N)NC(=O)[C@H](CSC(=CS(=O)(=O)C(C)(C)C)S(=O)(=O)C(C)(C)C)NC(=O)[C@H](CCCNC(=N)N)NC(=O)C[C@@H]1CCCN1C(=O)[C@@H](NC(=O)[C@H](Cc1c[nH]cn1)NC(=O)[C@@H](NC(=O)CNCC(=O)O)[C@@H](C)O)C(c1ccccc1)c1ccccc1` [PR73SF], in series [2] (setting [4]), the DC50 stood at 10 ± 3.4 nM.

Take `CCCCCCCCCCCCCCCCNC(=O)CN(CC(N)=O)C(=O)CCCCCNC(=O)C[C@H](Cc1ccccc1)NC(=O)[C@H](CCCNC(=N)N)NC(=O)[C@H](CSC(=CC(N)=O)C(N)=O)NC(=O)[C@H](CCCNC(=N)N)NC(=O)C[C@@H]1CCCN1C(=O)[C@@H](NC(=O)[C@H](Cc1c[nH]cn1)NC(=O)[C@@H](NC(=O)CNCC(=O)O)[C@@H](C)O)C(c1ccccc1)c1ccccc1` [PR73SG]: in series [2] (setting [4]), the DC50 was 8.4 ± 2.5 nM.

In the case of `CCCCCCCCCCCCCCCCNC(=O)CN(CC(N)=O)C(=O)CCCCCNC(=O)C[C@H](Cc1ccccc1)NC(=O)[C@H](CCCNC(=N)N)NC(=O)[C@H](CSC(=CP(=O)(OCC)OCC)P(=O)(OCC)OCC)NC(=O)[C@H](CCCNC(=N)N)NC(=O)C[C@@H]1CCCN1C(=O)[C@@H](NC(=O)[C@H](Cc1c[nH]cn1)NC(=O)[C@@H](NC(=O)CNCC(=O)O)[C@@H](C)O)C(c1ccccc1)c1ccccc1` [PR73SH], in series [3], the stability came to 99.5±0.5%. Also, the serum iron result in series [1] (6 hour time point) and in series [1] (24 hour time point) was “decreased serum iron” each time. For the same compound, in series [2] (read-out: EC50 [nM] TREX-hFpn-GFP cells, peptide treatment 24 hours, loss of GFP fluorescence relative to Hep25), the DC50 worked out at 1.1 ± 0.1 nM.
